Assay: Photostability of compound assessed as compound degradation at 20 uM incubated for 2.5 hrs under 20 mW/cm2 light irradiation by spectrophotometric analysis
Type: physicochemical
Conditions: read-out: Drug degradation

C=Cc1c(C)c2cc3nc(c(CC(=O)NCCOCCOCCOCCC(=O)OCCN4CCN(c5cc(Nc6ncc(C(=O)Nc7c(C)cccc7Cl)s6)nc(C)n5)CC4)c4[nH]c(cc5nc(cc1[nH]2)C(C)=C5CC)c(C)c4C(=O)O)[C@@H](CCC(=O)O)[C@@H]3C
degraded at 2.5 h, 20 µM: 4.7%

Source: ChEMBL document CHEMBL5634105, “Novel chlorin e6-based conjugates of tyrosine kinase inhibitors: Synthesis and photobiological evaluation as potent photosensitizers for photodynamic therapy” (Eur J Med Chem, 2023)
